In patent publication US8338414B2, “Immunosuppressive agent and anti-tumor agent comprising heterocyclic compound as active ingredient” (Zenyaku Kogyo KabushikiKaisha, priority 2005, dated 2012):
Where two headings read alike, the source gives them in different places. Blank lines part the entries; values can stand above or below the molecule they belong to.

Key:
[1] = tested on: mouse spleen cells; assay: Proliferation inhibition assay for mouse spleen cells; format: cell-based; settings: 72 h, 3 days, Alamar Blue
Method in brief: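 C57BL/6N female mouse spleen cells (2×10^6 cells/mL) stimulated with Con A (3 μg/mL), LPS (100 μg/mL) or anti-mouse IgM (100 μg/mL) alongside serially diluted compounds, 3 days at 37° C, 5% CO2. Alamar Blue added for a further day; fluorescence read at ex 530/em 590 nm.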

[2] = tested on: human peripheral blood mononuclear cells; assay: Proliferation inhibition assay for human peripheral blood mononuclear cells; format: cell-based; settings: Homo sapiens, 72 h; PBMC, anti-CD3 and anti-CD28 antibody, 3 days, Alamar Blue
Method in brief: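 PBMC from healthy donors (1×10^5 cells/mL) in RPMI 1640 with 10% FBS were stimulated with plate-bound anti-CD3 plus anti-CD28 (1 μg/mL). Serially diluted compounds were added and cells were cultured 3 days at 37 °C. Alamar Blue was then added for 1 day and fluorescence was read at ex 530/em 590 nm.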

[3] = tested on: human peripheral blood mononuclear cells; assay: Activation inhibition assay for human peripheral blood mononuclear cells (CD40L, CD69 expression); format: cell-based; settings: PBMC, anti-CD3 + anti-CD28, 6 hours, flow cytometry
Procedure: In accordance with the method of Assay Example 2, PBMC (2×10^6 cells/mL) was isolated from human peripheral blood, suspended in RPMI 1640 medium (containing 10% fetal bovine serum, 10 mM HEPES, 1 mM pyruvic acid, and 4.5 g/L glucose), and seeded in wells of a 96 well plate at 0.225 mL per well. The test substances were added to respective wells, and then an anti-CD3 antibody (2 μg/mL) and an anti-CD28 antibody (1 μg/mL) were added. Then, after incubation under conditions of carbon dioxide 5% at a temperature 37° C. for 6 hours, the expressions of CD40L and CD69, activation markers, were analysed by flow cytometry. As a result, when the cells were stimulated by both an anti-CD3 antibody and an anti-CD28 antibody, CD40L was expressed on 14.4% of PBMC, which was also CD4 positive. However, the proportion of the cells which expressed CD40L decreased when the cells had been treated with test substances (Compound 4: 4.9%; Compound 20: 3.7%, Compound 24: 3.6%).

[4] = tested on: Rabbit synoviocytes HIG-82; assay: Inhibition assay for proliferation of rabbit synoviocyte; format: cell-based; settings: Oryctolagus cuniculus, 72 h; HIG-82, 3 days, Alamar Blue
[5] = tested on: allogeneic mixed lymphocyte reaction; assay: Allogeneic mixed lymphocyte reaction; format: cell-based, mouse; settings: Mus musculus, Lymphocyte; C57BL/6N spleen stimulator cells, BALB/c lymph node responder cells, 86 hours, BrdU
Method in brief: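 Stimulators were C57BL/6N female spleen cells and responders BALB/c female peripheral lymph node mononuclear cells (mice 8-10 weeks old). Cells suspended at 2×10^6 cells/mL in RPMI 1640 with 10% FBS and antibiotics.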

[6] = tested on: Daudi cells; assay: Proliferation inhibitory activity on hematologic neoplasm cells, Daudi; format: cell-based; settings: Homo sapiens, Daudi, 72 h; 3 days, Alamar Blue
[7] = tested on: Jurkat cells; assay: Proliferation inhibitory activity on hematologic neoplasm cells, Jurkat; format: cell-based; settings: Homo sapiens, Jurkat, 72 h; 3 days, Alamar Blue
[8] = tested on: HL 60 cells; assay: Proliferation inhibitory activity on hematologic neoplasm cells, HL60; format: cell-based; settings: Homo sapiens, HL-60, 72 h; 3 days, Alamar Blue
[9] = tested on: THP-1 cells; assay: Proliferation inhibitory activity on hematologic neoplasm cells, THP-1; format: cell-based; settings: Homo sapiens, THP-1, 72 h; 3 days, Alamar Blue
[10] = tested on: U 937 cells; assay: Proliferation inhibitory activity on hematologic neoplasm cells, U937; format: cell-based; settings: Homo sapiens, U-937, 72 h; 3 days, Alamar Blue
[11] = tested on: fulminant hepatitis; assay: Fulminant hepatitis model (galactosamine and LPS); format: in vivo, mouse; settings: BALB/c mice, galactosamine 800 mg/kg and LPS 110 μg/kg i.p.
Procedure: BALB/c male mice (7 weeks old, purchased from Charles River Laboratories Japan Inc.) were used in the experiment. After having orally administered the test substances suspended in 5% HPC, galactosamine (800 mg/kg) and LPS (110 μg/kg) were intraperitoneally administered. Then, survival rates at 72 hours after administration were obtained.

[12] = Toxicologic test for single oral administration; settings: Sprague-Dawley (SD), rat, in vivo; SD male rats, single oral dose
[13] = tested on: Salmonella typhimurium TA98, TA100, TA1535, TA1537 and Escherichia coli WP2uvrA; assay: Ames test; format: cell-based; settings: preincubation method, with or without S-9, up to 5000 μg/flat plate
Procedure: Using 5 strains of Salmonella typhimurium TA98, TA100, TA1535, TA1537 and Escherichia coli WP2uvrA, the test substances (Compound 4, Compound 19, Compound 22 and Compound 24) were tested for their mutagenesis according to a preincubation method.

[14] = Test for measuring blood level; format: in vivo; settings: mouse, serum; BDF1 male mice, 200 mg/kg oral, one hour after the administration
Procedure: A pharmacokinetic study was performed using 6 week-old BDF1 male mice. The test substances were mixed with hydroxylpropylcellulose (low-molecular weight form) [HPC(L)] in 2.5-fold of the drug weight, and dissolved in dichloromethane. The solvent was evaporated to dryness. To make the dosing formation, the residue was suspended in distilled water to prepare the drug level of 20 mg/mL. The test compounds were administered compulsorily and orally at a dose of 200 mg/kg to the mice that had been starved for 16 hours. One hour after the administration, blood was collected from the orbits of two mice to obtain serum. Internal standards solution and 1 ml of distilled water were added to 100 μL, of serum thus obtained, and then extracted with diethylether. The solvent was evaporated under vacuum, and the residue was resolved with eluent to provide samples for the HPLC measurement. HPLC was performed by using reversed-phase type column, and acetonitrile-phosphate buffer (pH 2.5) was used as the eluent. Using regression curves (Y=aX+b) obtained from the standards, the drug levels in the sample serum were calculated.

[15] = tested on: PC-3 prostate cancer cells; assay: Proliferation inhibitory activity on solid tumor cells, PC-3; format: cell-based; settings: 72 hours
Procedure: (§1) Used in the test were MCF-7 cells which were established from human breast cancer and were cultured routinely under the conditions of 37° C. and 5% CO2, in MEM medium supplemented with 10% fetal calf serum, 25 mM of HEPES and 0.1 mg/ml kanamycin. The MCF-7 cells in a logarithmic growth phase were treated with trypsin/EDTA to prepare single cell suspension adjusted to 4.0×10^4 cells/ml in MEM medium (supplemented with 10% fetal calf serum, 25 mM of HEPES and 0.1 mg/ml kanamycin). Test compounds were dissolved in DMSO and diluted with RPMI 1640 medium (supplemented with 10% fetal calf serum, 25 mM of HEPES and 0.1 mg/ml kanamycin) to a concentration of […] to 2.0×10^−9M.
(§2) The cell suspension was filled in a 96-wells microplate at a rate of 0.1 ml per well and was cultured for 24 hours so as to make the cells to adhere to the microplate. Then, it was added with 0.1 ml of the sample solution and cultured at 37° C. for 72 hours in 5% CO2.
(§3) 50% Growth inhibition concentrations (GI50 μM) were calculated from growth inhibitions at various sample concentrations.
(§4) In the foregoing, when the cells other than MCF-7 are used, instead of adding 10% fetal bovine serum, the following media were used, and the following single cell suspensions were prepared. • PC-3 prostate cancer cells: 10% fetal bovine serum in F12K medium, single cell suspension of 2×10^4 cells; • A549 lung cancer cells: 10% fetal bovine serum in DMEM medium, single cell suspension of 1.5×10^4 cells; • WiDr colon cancer cells: 10% fetal bovine serum in MEM medium, single cell suspension of 3×10^4 cells; • B16F10 melanoma cells: 10% fetal bovine serum in RPMI 1640 medium, single cell suspension of 1×10^4 cells;

[16] = tested on: B16F10 melanoma cells; assay: Proliferation inhibitory activity on solid tumor cells, B16F10; format: cell-based; settings: Mus musculus, B16-F10; 72 hours
Procedure: as §1, §2, §3, §4

[17] = tested on: WiDr colon cancer cells; assay: Proliferation inhibitory activity on solid tumor cells, WiDr; format: cell-based; settings: Homo sapiens, 72 hours
Procedure: as §1, §2, §3, §4

[18] = tested on: A549 lung cancer cells; assay: Proliferation inhibitory activity on solid tumor cells, A549; format: cell-based; settings: Homo sapiens, 72 hours
Procedure: as §1, §2, §3, §4

[19] = tested on: MCF-7 cells; assay: Proliferation inhibitory activity on solid tumor cells, MCF-7; format: cell-based; settings: Homo sapiens, MCF7; 72 hours
Procedure: as §1, §2, §3

[20] = LPS 100 μg/mL, read-out: Inhibition of LPS response
[21] = concanavalin A 3 μg/mL, read-out: Inhibition of Con A response

Structure (SMILES): COc1cccc2c1nc(C(F)F)n2-c1nc(N2CCOCC2)cc(N2C[C@@H](C)O[C@@H](C)C2)n1 [Compound 24, 2-(2-Difluoromethyl-4-methoxybenzimidazol-1-yl)-4-(cis-2,6-dimethylmorpholino)-6-morpholinopyrimidine]
IC50 [1, 20]: 100 to 10000 nM
IC50 ([1]; anti-mouse IgM antibody 100 μg/mL, read-out: Inhibition of Anti-IgM antibody response): 100 to 10000 nM
IC50 [1, 21]: 100 to 10000 nM
IC50 [2]: 471 nM
proportion of the cells which expressed CD40L ([3]; CD4 positive, 14.4% without test substance): 3.6%
proportion of CD4-positive cells which expressed CD69 ([3]; 28.8% without test substance): 17.7%
proportion of CD4-negative cells which expressed CD69 ([3]; 50.9% without test substance): 22.4%
IC50 [4]: 441 nM
IC50 [5]: 286 nM
IC50 [6]: 397 nM
IC50 [7]: 1450 nM
IC50 [8]: 823 nM
IC50 [9]: 859 nM
IC50 [10]: 2790 nM
Survival Rate after 72 Hours ([11]; 50 mg/kg oral): 33%
Survival Rate after 72 Hours ([11]; 100 mg/kg oral): 67%
LD50 [12]: 600 to 900 mg/kg
mutagenesis (colony number of reverse mutation) [13]: negative

IC50 [6]: 235 nM
IC50 [7]: 1800 nM
IC50 [9]: 496 nM
concentration at 1 h [14]: 16100 ng/mL
GI50 [15]: 270 nM
GI50 [16]: 2660 nM
GI50 [17]: 1270 nM
GI50 [18]: 830 nM
GI50 [19]: 1210 nM
melting point: 223 °C
Structure (SMILES): CC(=O)N1CCN(c2nc(N3CCOCC3)nc(-n3c(C(F)F)nc4ccccc43)n2)CC1 [Compound 28, 4-(4-acetylpiperazin-1-yl)-2-(2-difluoromethylbenzimidazol-1-yl)-6-morpholino-1,3,5-triazine]
IC50 [1, 20]: 1 to 100 nM
IC50 [1, 21]: ≤ 1 nM
IC50 [4]: 1110 nM
